In BigSolDB 2.1:

CC(=O)c1c(C)c([N+](=O)[O-])c(C(C)(C)C)c([N+](=O)[O-])c1C
solubility (mole fraction)
Conditions	273.15 K	278.15 K	283.15 K	288.15 K	293.15 K	298.15 K	303.15 K	308.15 K	313.15 K
in ethanol	0.0016	0.00198	0.00241	0.00295	0.00354	0.00426	0.00512	0.00619	0.0074
in ethyl acetate	0.055	0.0641	0.0742	0.0852	0.0954	0.111	0.122	0.139	0.156
in methanol	0.00108	0.00128	0.00157	0.00187	0.00225	0.00272	0.00326	0.00387	0.00458
in n-butanol	0.0022	0.00286	0.00368	0.00449	0.00533	0.00666	0.00812	0.00972	0.012
